What is called IC50 is the concentration that gives 50% inhibition.

Where two headings read alike, the source gives them in different places. Some results are limits rather than exact numbers.

The text below walks through data of patent US20070219186A1, “Pyrazolo[1,5-A]pyrimidine derivatives and methods of use thereof” (priority 2006, published 2007).

The target in this experiment is T1, human B-Raf (Homo sapiens, UniProt P15056).
T1 construct: Flag; GST; made in house; host or cells: Sf9 insect cells (B-Raf); E. coli (MEK1-GST)
T1 sequence (P15056 whole entry): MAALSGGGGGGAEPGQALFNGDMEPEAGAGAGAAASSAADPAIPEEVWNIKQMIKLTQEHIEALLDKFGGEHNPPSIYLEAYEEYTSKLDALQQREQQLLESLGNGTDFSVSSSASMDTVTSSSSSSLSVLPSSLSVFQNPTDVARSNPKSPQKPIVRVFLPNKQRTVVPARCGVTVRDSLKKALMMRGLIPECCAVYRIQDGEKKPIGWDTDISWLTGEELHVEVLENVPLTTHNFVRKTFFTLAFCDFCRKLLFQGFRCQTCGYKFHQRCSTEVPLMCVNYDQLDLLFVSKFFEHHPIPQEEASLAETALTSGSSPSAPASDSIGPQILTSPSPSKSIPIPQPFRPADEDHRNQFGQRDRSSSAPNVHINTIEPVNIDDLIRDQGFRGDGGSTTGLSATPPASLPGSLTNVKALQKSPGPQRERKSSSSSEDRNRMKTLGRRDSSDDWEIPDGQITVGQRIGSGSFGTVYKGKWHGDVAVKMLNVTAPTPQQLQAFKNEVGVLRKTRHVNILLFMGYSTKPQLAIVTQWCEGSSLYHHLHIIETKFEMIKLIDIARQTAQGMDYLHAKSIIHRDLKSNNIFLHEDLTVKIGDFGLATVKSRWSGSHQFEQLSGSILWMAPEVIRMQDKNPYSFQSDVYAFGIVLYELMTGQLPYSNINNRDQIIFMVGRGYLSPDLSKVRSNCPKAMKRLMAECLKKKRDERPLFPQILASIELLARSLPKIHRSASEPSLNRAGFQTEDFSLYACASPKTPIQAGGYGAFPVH
Description: B-Raf Kinase to MEK1 ELISA. Format: biochemical. Conditions: for inhibition at 10 µM: read-out: % Inhib./10 uM. An excerpt: TITLE: B-Raf Kinase to MEK1 ELISA
PURPOSE: To discover B-Raf Kinase inhibitors that can inhibit growth of tumor cells which contain oncogenic forms of Receptor Tyrosine Kinases or K-Ras, or B-Raf kinase.
Reagents: Flag/GST-tagged recombinant human B-Raf produced in Sf9 insect cells, human non-active Mek-1-GST (recombinant protein produced in E. coli); and a phospho-MEK1 specific poly-clonal Ab from Cell Signaling Technology (cat. #9121).
B-Raf1 Kinase Assay Procedure:
B-Raf-1 is used to phosphorylate GST-MEK1. MEK1 phosphorylation is measured by a phospho-specific antibody (from Cell Signaling Technology, cat. #9121) that detects phosphorylation of two serine residues at positions 217 and 221 on MEK1.
B-Raf Assay Stock Solutions:
1. Assay Dilution Buffer (ADB): 20 mM MOPS, pH 7.2, 25 mM β-glycerol phosphate, 5 mM EGTA, 1 mM sodium orthovanadate, 1 mM dithiothreitol.
2. Magnesium/ATP Cocktail: 200 μM cold ATP and 40 mM magnesium chloride in ADB.
3. Active Kinase: Active B-Raf: used at ˜20 ng per assay point.
4. Non-active GST-MEK1: Use at 100 nM (50 nM final).
6. Anti-GST Ab (Pharmacia)
7. Anti-rabbit Ab/Europium conjugate (Wallac)
1. Add 25 μl of ADB containing B-Raf and Mek per assay (i.e. per well of a 96 well plate)
2. Add 25 μl of 0.2 mM ATP and 40 mM magnesium chloride in ADB.
3. Incubate for 60 minutes at RT in a shaking incubator.
4. Transfer this mixture to an anti-GST Ab coated 96 well plate (Nunc Immunosorb plates coated o/n with a-GST.
5. Incubate for 60 minutes at 30° C. in a shaking incubator
6. Wash 3× with TBST, add Anti-Phospho MEK1 (1:1000)
7. Incubate for 60 minutes at 30° C. in a shaking incubator
8. Wash 3× with TBST, add Anti-rabbit Ab/Europium conjugate (Wallac) (1:500)
9. Incubate for 60 minutes at 30° C. in a shaking incubator
10. Add 100 ul of Wallac Delfia Enhancement Solution and shake for 10 minutes.
11. Read plates in Wallac Victor model Plate Reader.
12. Collect data analyze in Excel for single point and IC50 determinations.
Typically Raf-1 assay is run at cpd concentrations from 10 μM to 30 nM in half log dilutions. (% inhibition is determined for each cpd concentration)
For orientation: In an ELISA, binding on a coated surface is turned into a signal by an enzyme label.

[1] abbreviates: median, cpd concentrations from 10 μM to 30 nM in half log dilutions, read-out: Median IC50.

In the case of `O=C(Nc1cccc(-c2ccnc3c(C(=O)NCCCn4ccnc4)cnn23)c1)Nc1ccc(Cl)c(C(F)(F)F)c1` [Example 120, 7-{3-[({[4-chloro-3-(trifluoromethyl)phenyl]amino}carbonyl)amino]phenyl}-N-[3-(1H-imidazol-1-yl)propyl]pyrazolo[1,5-a]pyrimidine-3-carboxamide], the inhibition at 10 µM is 92%. Further, the IC50 under setting [1] came to 120 nM. For `Cc1ccc(C(=O)Nc2cccc(-c3ccnc4c(-c5cccnc5)cnn34)c2)cc1C(F)(F)F` [Example 169, 4-methyl-N-[3-(3-pyridin-3-ylpyrazolo[1,5-a]pyrimidin-7-yl)phenyl]-3-(trifluoromethyl)benzamide], the IC50 was 70 nM and the inhibition at 10 µM stood at 96%. Regarding `COCC(=O)Nc1ccc(-c2cnn3c(-c4cccc(NC(=O)c5cccc(C(F)(F)F)c5)c4)ccnc23)cc1` [Example 229, N-[3-(3-{4-[(methoxyacetyl)amino]phenyl}pyrazolo[1,5-a]pyrimidin-7-yl)phenyl]-3-(trifluoromethyl)benzamide], the inhibition at 10 µM was 83%. The IC50 under setting [1] came out at 118 nM. Turning to `O=C(Nc1cccc(-c2ccnc3cc(N4CCC[C@H]4CN4CCCC4)nn23)c1)c1cccc(C(F)(F)F)c1` [Example 211, N-(3-{2-[(2S)-2-(pyrrolidin-1-ylmethyl)pyrrolidin-1-yl]pyrazolo[1,5-a]pyrimidin-7-yl}phenyl)-3-(trifluoromethyl)benzamide], the inhibition at 10 µM turned out to be 47%. Under setting [1], the IC50 is > 10000 nM.

On to `CCNC(=O)c1cnn2c(-c3cccc(NC(=O)c4cccc(C(F)(F)F)c4)c3)ccnc12` [Example 51, N-ethyl-7-(3-{[3-(trifluoromethyl)benzoyl]amino}phenyl)pyrazolo[1,5-a]pyrimidine-3-carboxamide], for which the inhibition at 10 µM is 50%. On to `CCOC(=O)c1cnn2c(-c3cccc(NC(=O)Nc4ccc(C#N)c(C(F)(F)F)c4)c3)ccnc12` [Example 78, ethyl 7-{3-[({[4-cyano-3-(trifluoromethyl)phenyl]amino}carbonyl)amino]phenyl}pyrazolo[1,5-a]pyrimidine-3-carboxylate], for which the IC50 worked out at 570 nM. Besides, the inhibition at 10 µM (single point assay, 10 uM) worked out at 85%. For the molecule `O=C(Nc1cccc(-c2ccnc3c(-c4nn[nH]n4)cnn23)c1)c1cccc(C(F)(F)F)c1` [Example 60, N-{3-[3-(2H-tetrazol-5-yl)pyrazolo[1,5-a]pyrimidin-7-yl]phenyl}-3-(trifluoromethyl)benzamide], the inhibition at 10 µM amounted to 1%. Also, under setting [1], the IC50 was > 10000 nM.

`CCOC(=O)c1cnn2c(-c3cccc(NC(=O)c4cccc(OC(F)(F)F)c4)c3)ccnc12` [Example 7, ethyl 7-(3-{[3-(trifluoromethoxy)benzoyl]amino}phenyl)pyrazolo[1,5-a]pyrimidine-3-carboxylate]: under setting [1], the IC50 was 1430 nM. In addition, for the setting “single point assay, 10 uM”, the inhibition at 10 µM was determined as 67%. Turning to `NC1CCN(c2cc3nccc(-c4cccc(NC(=O)c5cccc(C(F)(F)F)c5)c4)n3n2)C1` (centres unmarked) [Example 213, N-{3-[2-(3-aminopyrrolidin-1-yl)pyrazolo[1,5-a]pyrimidin-7-yl]phenyl}-3-(trifluoromethyl)benzamide], the inhibition at 10 µM is 40%. Besides, the IC50 under setting [1] was > 10000 nM. On the same counts, the results for `CNc1ccc(-c2cnn3c(-c4cccc(NC(=O)c5cccc(C(F)(F)F)c5)c4)ccnc23)cn1` [Example 284, N-(3-{3-[6-(methylamino)pyridin-3-yl]pyrazolo[1,5-a]pyrimidin-7-yl}phenyl)-3-(trifluoromethyl)benzamide] are 92% and 78 nM. `CCOC(=O)c1cnn2c(-c3cccc(NC(=O)c4cccc(OC)c4)c3)ccnc12` [Example 8, ethyl 7-{3-[(3-methoxybenzoyl)amino]phenyl}pyrazolo[1,5-a]pyrimidine-3-carboxylate]: the IC50 under setting [1] is > 10000 nM. Besides, the inhibition at 10 µM (single point assay, 10 uM) amounted to 28%. Turning to `CCOC(=O)c1cnn2c(-c3cccc(NC(=O)c4cc(Cl)ccn4)c3)ccnc12` [Example 217, ethyl7-(3-{[(4-chloropyridin-2-yl)carbonyl]amino}phenyl)pyrazolo[1,5-a]pyrimidine-3-carboxylate], the inhibition at 10 µM amounted to 34%. Also, the IC50 under setting [1] was > 10000 nM. With `CN1CCCC1CCNC(=O)c1cnn2c(-c3cccc(NC(=O)c4cccc(C(F)(F)F)c4)c3)ccnc12` (centres unmarked) [Example 54, N-[2-(1-methylpyrrolidin-2-yl)ethyl]-7-(3-{[3-(trifluoromethyl)benzoyl]amino}phenyl)pyrazolo[1,5-a]pyrimidine-3-carboxamide], the inhibition at 10 µM was determined as 32%. Moreover, the IC50 under setting [1] is > 10000 nM. On the same counts, the results for `Cc1ccc(C(=O)Nc2cccc(-c3ccnc4c(C#N)cnn34)c2)cc1C(F)(F)F` [Example 69, N-[3-(3-cyanopyrazolo[1,5-a]pyrimidin-7-yl)phenyl]-4-methyl-3-(trifluoromethyl)benzamide] are 13% and > 10000 nM. With `O=C(Nc1cccc(-c2ccnc3cc(-c4ccncc4)nn23)c1)c1ccccc1` [Example 144, N-[3-(2-pyridin-4-ylpyrazolo[1,5-a]pyrimidin-7-yl)phenyl]benzamide], the inhibition at 10 µM amounted to 15%. Further, the IC50 under setting [1] was > 10000 nM. For `O=C(Nc1cccc(-c2ccnc3c(C(=O)NCCN4CCOCC4)cnn23)c1)Nc1ccc(Cl)c(C(F)(F)F)c1` [Example 123, 7-{3-[({[4-chloro-3-(trifluoromethyl)phenyl]amino}carbonyl)amino]phenyl}-N-(2-morpholin-4-ylethyl)pyrazolo[1,5-a]pyrimidine-3-carboxamide], the IC50 was found to be 120 nM and the inhibition at 10 µM amounted to 93%.

For `CCOC(=O)c1cnn2c(-c3cccc(NC(=O)Nc4c(C)cc(C)cc4C)c3)ccnc12` [Example 22, ethyl 7-(3-{[(mesitylamino)carbonyl]amino}phenyl)pyrazolo[1,5-a]pyrimidine-3-carboxylate], the inhibition at 10 µM was found to be 34%. The IC50 under setting [1] was > 10000 nM. Regarding `CC(C)(C)OC(=O)N1CCN(c2cc3nccc(-c4cccc(NC(=O)c5cccc(C(F)(F)F)c5)c4)n3n2)CC1` [Example 206, tert-butyl 4-[7-(3-{[3-(trifluoromethyl)benzoyl]amino}phenyl)pyrazolo[1,5-a]pyrimidin-2-yl]piperazine-1-carboxylate], the inhibition at 10 µM is 18%. For the same molecule, the IC50 under setting [1] is > 10000 nM. Turning to `CC(O)c1ccccc1-c1cnn2c(-c3cccc(NC(=O)c4cccc(C(F)(F)F)c4)c3)ccnc12` (centres unmarked) [Example 303, N-(3-{3-[2-(1-hydroxyethyl)phenyl]pyrazolo[1,5-a]pyrimidin-7-yl}phenyl)-3-(trifluoromethyl)benzamide], the inhibition at 10 µM was found to be 80%. Moreover, the IC50 under setting [1] was 288 nM. The like results for `CCOC(=O)c1cnn2c(-c3cccc(NC(=O)Nc4ccc(C)c(C(F)(F)F)c4)c3)ccnc12` [Example 79, ethyl 7-{3-[({[4-methyl-3-(trifluoromethyl)phenyl]amino}carbonyl)amino]phenyl}pyrazolo[1,5-a]pyrimidine-3-carboxylate] were, in that order, 88% and 370 nM. As to `O=C(Nc1cccc(-c2ccnc3c(C(=O)NCCN4CCCC4)cnn23)c1)c1cccc(C(F)(F)F)c1` [Example 48, N-(2-pyrrolidin-1-ylethyl)-7-(3-{[3-(trifluoromethyl)benzoyl]amino}phenyl)pyrazolo[1,5-a]pyrimidine-3-carboxamide], the inhibition at 10 µM was found to be 43%.

For the molecule `O=C(Nc1cccc(-c2ccnc3cc(-c4ccnc(NCCCN5CCCCC5)c4)nn23)c1)c1cccc(C(F)(F)F)c1` [Example 259, N-[3-(2-{2-[(3-piperidin-1-ylpropyl)amino]pyridin-4-yl}pyrazolo[1,5-a]pyrimidin-7-yl)phenyl]-3-(trifluoromethyl)benzamide], the inhibition at 10 µM turned out to be 99%. In addition, the IC50 under setting [1] was determined as 91.4 nM.

For the molecule `CN(C)CC(=O)Nc1ccc(-c2cnn3c(-c4cccc(NC(=O)c5cccc(C(F)(F)F)c5)c4)ccnc23)cc1` [Example 230, N-[3-(3-{4-[(N,N-dimethylglycyl)amino]phenyl}pyrazolo[1,5-a]pyrimidin-7-yl)phenyl]-3-(trifluoromethyl)benzamide], under setting [1], the IC50 stood at 49 nM. The inhibition at 10 µM (single point assay, 10 uM) was 93%.
